From patent US20240216354A1, “IMMUNOMODULATORY IMIDE DRUGS AS ZETA-CHAIN-ASSOCIATED PROTEIN KINASE 70 (ZAP70) AGONISTS AND USES THEREOF” (Dana-Farber Cancer Institute, Inc., priority 2019, published 2024)

Tests used:
Zap-70 [1] = target: T1, Zap-70 (Homo sapiens, UniProt P43403); experiment: Pomalidomide-beads pull-down from Jurkat whole cell lysates; assay type: binding; design: purchased Origene, Rockville, MD; details: competitor 1 mM free pomalidomide, 1 h
T1 sequence (P43403 1-619): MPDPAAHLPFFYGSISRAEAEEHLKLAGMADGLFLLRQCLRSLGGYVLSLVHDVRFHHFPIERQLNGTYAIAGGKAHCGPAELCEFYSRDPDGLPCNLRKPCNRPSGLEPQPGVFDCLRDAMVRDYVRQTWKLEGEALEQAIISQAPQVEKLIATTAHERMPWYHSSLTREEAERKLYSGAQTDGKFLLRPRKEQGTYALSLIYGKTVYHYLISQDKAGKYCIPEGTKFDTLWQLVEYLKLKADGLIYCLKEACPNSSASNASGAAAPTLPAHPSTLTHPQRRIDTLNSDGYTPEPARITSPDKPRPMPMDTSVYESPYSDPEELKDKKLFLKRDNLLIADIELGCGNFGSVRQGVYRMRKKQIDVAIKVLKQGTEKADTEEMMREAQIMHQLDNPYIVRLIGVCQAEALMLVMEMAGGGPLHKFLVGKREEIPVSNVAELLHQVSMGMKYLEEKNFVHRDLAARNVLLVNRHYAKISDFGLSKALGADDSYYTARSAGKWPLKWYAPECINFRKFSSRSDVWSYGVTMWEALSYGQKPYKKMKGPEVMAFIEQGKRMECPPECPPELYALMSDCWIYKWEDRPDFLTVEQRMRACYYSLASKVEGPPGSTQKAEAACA
Experimental: (§1) (A) Jurkat cells were transfected with scrambled (Sc) siRNA or Zap-70 siRNA. Whole cell lysates were subjected to immunoblotting using indicated Abs. (B) Jurkat cells were treated with lenalidomide ([…]) or pomalidomide (1 and 3 μM) for 4 h and 8 h. Whole cell lysates were subjected to p-Zap ELISA assay. (C) Jurkat whole cell lysates were incubated with pomalidomide-beads in the presence or absence of competitor (1 mM free pomalidomide) for 1 h. After elution, samples were subjected to immunoblotting using anti-Zap-70 Ab. (D) Saturation-transfer difference resulting from the binding of pomalidomide to Zap-70. Pomalidomide is at 320 μM and Zap-70 is approximately 2 μM in deuterated PBS solution. […] (E) Saturation-transfer difference resulting from the binding of pomalidomide to Zap-70 in the presence of 2.56 mMATP. Pomalidomide is at 320 μM and Zap-70 is approximately 2 μM in deuterated PBS solution. […] Note that both ATP and pomalidomide show binding the Zap-70. (F) Non-cell based Zap-70 kinase assay was carried out, according to manufacturer's protocol.

Jurkat cells = experiment: Jurkat cell growth by MTT assay; assay type: cell-based; details: 0.01-1 μM, 72 h
Experimental: (A) PBMCs were cultured with pomalidomide (“Pom”) (0.01-1 μM) for 16 h. […] (B) PBMCs were cultured with pomalidomide (0.1 and 1 μM) for the indicated time periods. (C) PBMCs were cultured with lenalidomide (“Len”) (1 μM) for 16 h. (D) Primary T-cells from healthy volunteer were cultured with pomalidomide (0.25-1 μM) for 16 h. (E) Jurkat cells were cultured with pomalidomide (0.5 and 1 μM) for 16 h. Whole cell lysates were subjected to immunoblotting (A-E) using indicated Abs. (F) Jurkat cells were cultured with pomalidomide (0.01-1 μM) or lenalidomide (0.01-1 μM) for 72 h. Cell growth was assessed by MTT assay.

Zap-70 [2] = target: T1, Zap-70; experiment: Saturation-transfer difference (STD) NMR binding to recombinant Zap-70; design: purchased Origene, Rockville, MD; details: Pom 320 μM, Len 2.56 mM, ATP 2.56 mM, Zap-70 approximately 2 μM, deuterated PBS
Experimental: as §1
(A) Saturation-transfer difference resulting from the binding of lenalidomide to Zap-70, with lenalidomide (2.56 mM) and Zap-70 (2 μM) in deuterated PBS solution. […] (B) Saturation-transfer difference resulting from the binding of lenalidomide to Zap70 in the presence of 2.56 mM ATP, with lenalidomide (2.56 mM) and Zap-70 (2 μM) in deuterated PBS solution.
Commercial recombinant Zap-70 (Origene, Rockville, MD) was prepared by gel filtration buffer exchange into deuterated phosphate-buffered saline (PBS), which removed any components of the protein storage buffer, including glycerol. Len and Pom were made as d6-DMSO stock solutions and frozen in aliquots prior to use. ATP was stored frozen in aliquots at −20° C. in deuterated PBS. NMR samples were prepared in 5 mm SampleJet tubes to a final volume of 500 μl by adding 5-20 μl of the appropriate IMiD stock solution to the buffer-exchanged protein. The final concentration of protein in the NMR samples was approximately 2 μM. […]

U266 cells = experiment: NK-92 NK cell activity against calcein-AM-stained U266 cells; assay type: cell-based; details: NK-92 cells, 48 h; Pom 0.5 and 1 μM; CC-220 0.1 and 1 μM, E/T 2.5/1
Experimental: (A) NK-92 cells were cultured with Pom (0.5 and 1 μM) for 24 h. Whole cell lysates were subjected to immunoblotting using indicated Abs. (B) NK-92 cells were cultured with Pom (0.5 and 1 μM) for 48 h. The cells were subsequently incubated with calcein-AM-stained U266 cells for 4 h at the indicated effector/target (E/T) ratios. Percent specific lysis was calculated as described previously. (C) NK-92 cells were cultured with Pom (0.03-3 μM) for 72 h. Cell growth was assessed by MTT assay. (D) NK-92 cells were transfected with scrambled (Sc) or Zap-70 siRNA (Zap70si). After 72 h incubation, cell viability was measured by trypan-blue dye exclusion. For B, C, and D, data are representative of at least two independent experiments, and values are expressed in mean±SD.
(A) NK-92 cells were cultured with Len (1 μM), Pom (0.01, 0.1, 1 μM) or CC-220 (0.01, 0.1, 1 μM) for 24 h. Whole cell lysates were subjected to immunoblotting using indicated Abs. (B) NK-92 cells were cultured with Pom (0.1 and 1 μM) or CC-220 ([…]) for 48 h. NK cell activity was measured by incubation with calcein AM-labeled U266 cells for 4 h at E/T ratio of 2.5/1. Percent specific lysis was calculated as previously described. Data are representative of three independent experiments, and values are expressed in mean±SD. *: p<0.01.

competition of Zap-70 pull-down by Pom-beads (Zap-70 [1]): inhibited by free pomalidomide | direct binding to Zap-70 (STD NMR) (Zap-70 [2]): directly binds to Zap-70
Structure (SMILES): Nc1cccc2c1C(=O)N(C1CCC(=O)NC1=O)C2=O (stereo not shown) [pomalidomide]
proliferation / cell growth (MTT) (Jurkat cells): without altering their proliferation | NK cell activity against U266 cells (percent specific lysis) (U266 cells): upregulated NK activity
